Assay results as given in patent US20240158446A1, “CYCLIC COMPOUND HAVING SELECTIVE INHIBITORY ACTION ON KRAS OVER HRAS AND NRAS” (CHUGAI SEIYAKU KABUSHIKI KAISHA, priority 2021, published 2024).
Read-outs that look alike come from different tables or passages of the source.

Key:
[1] = target: GDP-bound KRAS wild-type protein (Homo sapiens, UniProt P01116); assay: Binding to KRAS by surface plasmon resonance (SPR), Single Cycle Kinetics; details: GDP-bound KRAS wild-type protein, read-out: KRAS KD
Chain of GDP-bound KRAS wild-type protein (P01116 whole entry): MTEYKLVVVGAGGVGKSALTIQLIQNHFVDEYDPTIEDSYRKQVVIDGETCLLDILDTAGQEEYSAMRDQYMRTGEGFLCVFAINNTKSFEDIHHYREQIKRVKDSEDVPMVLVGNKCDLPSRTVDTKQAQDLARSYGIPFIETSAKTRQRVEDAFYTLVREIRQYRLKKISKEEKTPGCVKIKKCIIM

[2] = target: GDP-bound HRAS wild-type protein (Homo sapiens, UniProt P01112); assay: Binding to HRAS by surface plasmon resonance (SPR), Single Cycle Kinetics; details: for HRAS/KRAS (ratio of KD value with respect to GDP-bound HRAS wild-type protein to KD value with respect to KRAS): SPR KD ratio HRAS/KRAS, class symbols; for HRAS/KRAS (ratio of KD value for HRAS to KD value for KRAS) / HRAS/KRAS (ratio of KD value with respect to HRAS to KD value with respect to KRAS): SPR, GDP-bound HRAS wild-type protein vs GDP-bound KRAS wild-type protein
Chain of GDP-bound HRAS wild-type protein (P01112 whole entry): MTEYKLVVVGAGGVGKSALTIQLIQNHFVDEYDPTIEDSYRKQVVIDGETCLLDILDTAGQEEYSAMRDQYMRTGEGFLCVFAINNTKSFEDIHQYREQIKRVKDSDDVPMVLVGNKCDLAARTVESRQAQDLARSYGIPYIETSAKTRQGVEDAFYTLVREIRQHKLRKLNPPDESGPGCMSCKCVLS

[3] = target: GDP-bound NRAS wild-type protein (Homo sapiens, UniProt P01111); assay: Binding to NRAS by surface plasmon resonance (SPR), Single Cycle Kinetics; details: for NRAS/KRAS (ratio of KD value with respect to GDP-bound NRAS wild-type protein to KD value with respect to KRAS): SPR KD ratio NRAS/KRAS, class symbols; for NRAS/KRAS (ratio of KD value for NRAS to KD value for KRAS) / NRAS/KRAS (ratio of KD value with respect to NRAS to KD value with respect to KRAS): SPR, GDP-bound NRAS wild-type protein vs GDP-bound KRAS wild-type protein
Chain of GDP-bound NRAS wild-type protein (P01111 whole entry): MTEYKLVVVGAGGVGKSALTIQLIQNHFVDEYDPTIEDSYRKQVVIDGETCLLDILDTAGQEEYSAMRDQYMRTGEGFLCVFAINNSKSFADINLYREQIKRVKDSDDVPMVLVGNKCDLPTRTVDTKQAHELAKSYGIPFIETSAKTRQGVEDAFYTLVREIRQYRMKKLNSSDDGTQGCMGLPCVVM

[4] = SPR Single Cycle Kinetics, 1:1 binding model

Kd [1, 4] | Kd ([1]; SPR, Single Cycle Kinetics) | Compound | HRAS/KRAS (ratio of KD value for HRAS to KD value for KRAS) [2] | NRAS/KRAS (ratio of KD value for NRAS to KD value for KRAS) [3] | also measured
860 pM |  | CC[C@H](C)[C@@H]1NC(=O)[C@H](CC(C)C)N(C)C(=O)C[C@@H](C(=O)N2CCOCC2)N(C)C(=O)[C@H](C2CCCC2)N(C)C(=O)C2(CCCC2)NC(=O)[C@@H]2CCCN2C(=O)[C@H](CCc2ccc(C(F)(F)F)c(Cl)c2)NC(=O)CN(C)C(=O)[C@H](Cc2ccc(C)cc2)N2CCCCC[C@@H](C2=O)N(C)C(=O)CN(C)C1=O [PP0317] | B (a compound having 3 or more and less than 10 is denoted as B) | B (a compound having 3 or more and less than 10 is denoted as B) | 
 | 570 pM | CCO[C@@H]1C[C@H]2C(=O)NC3(CCC3)C(=O)N(C)[C@@H](C3CCCC3)C(=O)N(C)[C@H](C(=O)N3CCOCC3)CC(=O)N(C)[C@@H](COC)C(=O)N[C@@H]([C@@H](C)CC)C(=O)N(C)CC(=O)N(C)[C@H]3CCCCCN(C3=O)[C@@H](Cc3ccc(C(F)(F)F)cc3)C(=O)N(C)CC(=O)N[C@@H](CCc3ccc(C(F)(F)F)c(F)c3)C(=O)N2C1 [PP0848] | B (a compound having 3 or more and less than 10 is denoted as B) | B (a compound having 3 or more and less than 10 is denoted as B) | 
6200 pM |  | CC[C@H](C)[C@@H]1NC(=O)[C@H](CC(C)C)N(CC)C(=O)C[C@@H](C(=O)N2CCOCC2)N(C)C(=O)[C@H](C2CCCC2)N(C)C(=O)C2(CCCC2)NC(=O)[C@@H]2CCCN2C(=O)[C@H](CCc2cc(F)c(C(F)(F)F)c(F)c2)NC(=O)CN(C)C(=O)[C@H](Cc2ccc(C(F)(F)F)cc2)N2CCCCC[C@@H](C2=O)N(C)C(=O)CN(C)C1=O [PP0513] |  |  | HRAS/KRAS (ratio of KD value with respect to HRAS to KD value with respect to KRAS) [2]: B (a compound having 3 or more and less than 10 is denoted as B); NRAS/KRAS (ratio of KD value with respect to NRAS to KD value with respect to KRAS) [3]: B (a compound having 3 or more and less than 10 is denoted as B)
 | 56 pM | CC[C@H](C)[C@@H]1NC(=O)[C@H](CC(C)C)N(C)C(=O)C[C@@H](C(=O)N2CCOCC2)N(C)C(=O)[C@H](C2CCCC2)N(C)C(=O)C2(CCC2)NC(=O)[C@@H]2[C@@H](O)CCN2C(=O)[C@H](CCc2cc(F)c(C(F)(F)F)c(F)c2)NC(=O)CN(C)C(=O)[C@H](Cc2ccc(C(F)(F)F)cc2)N2CCCC[C@@H](C2=O)N(C)C(=O)CN(C)C1=O [PP0869] | B (a compound having 3 or more and less than 10 is denoted as B) | B (a compound having 3 or more and less than 10 is denoted as B) | 
 | 5000 pM | CC[C@H](C)[C@@H]1NC(=O)[C@H](COC)N(C)C(=O)C[C@@H](C(=O)N2CCOCC2)N(C)C(=O)[C@H](C2CCCC2)N(C)C(=O)C2(CCC2)NC(=O)[C@@H]2CCN2C(=O)[C@H](CCc2cc(F)c(C(F)(F)F)c(F)c2)NC(=O)CN(C)C(=O)[C@H](Cc2ccc(C(F)(F)F)cc2)N2CCCCC[C@@H](C2=O)N(C)C(=O)CN(C)C1=O [PP0840] | B (a compound having 3 or more and less than 10 is denoted as B) | B (a compound having 3 or more and less than 10 is denoted as B) | 
670 pM |  | CC[C@H](C)[C@@H]1NC(=O)[C@H](CC(C)C)N(C)C(=O)C[C@@H](C(=O)N2CCOCC2)N(C)C(=O)[C@H](C2CCCC2)N(CC)C(=O)C2(CCCC2)NC(=O)[C@@H]2CCCN2C(=O)[C@H](CCc2cc(F)c(C(F)(F)F)c(F)c2)NC(=O)CN(C)C(=O)[C@H](Cc2ccc(C(F)(F)F)cc2)N2CCCC[C@@H](C2=O)N(C)C(=O)CN(C)C1=O [PP0538] |  |  | HRAS/KRAS (ratio of KD value with respect to HRAS to KD value with respect to KRAS) [2]: B (a compound having 3 or more and less than 10 is denoted as B); NRAS/KRAS (ratio of KD value with respect to NRAS to KD value with respect to KRAS) [3]: B (a compound having 3 or more and less than 10 is denoted as B)

Second part, the compound before the results:

Compound | Kd [1, 4] | Kd ([1]; SPR, Single Cycle Kinetics) | HRAS/KRAS (ratio of KD value for HRAS to KD value for KRAS) [2] | NRAS/KRAS (ratio of KD value for NRAS to KD value for KRAS) [3] | also measured
CCO[C@@H]1C[C@H]2C(=O)NC3(CC(C)(C)C3)C(=O)N(C)[C@@H](C3CCCC3)C(=O)N(C)[C@H](C(=O)N(C)C)CC(=O)N(C)[C@@H](CC(F)(F)F)C(=O)N[C@@H]([C@@H](C)CC)C(=O)N(C)CC(=O)N(C)[C@H]3C/C=C\CCN(C3=O)[C@@H](Cc3ccc(C(F)(F)F)cc3)C(=O)N(C)CC(=O)N[C@@H](CCc3ccc(Cl)c(Cl)c3)C(=O)N2C1 [PP2832] | 180 pM |  |  |  | HRAS/KRAS (ratio of KD value with respect to GDP-bound HRAS wild-type protein to KD value with respect to KRAS) [2]: A (a compound having 10 or more and less than 20 is denoted as A); NRAS/KRAS (ratio of KD value with respect to GDP-bound NRAS wild-type protein to KD value with respect to KRAS) [3]: A (a compound having 10 or more and less than 20 is denoted as A)
C#CC[C@H]1C(=O)N[C@@H]([C@@H](C)CC)C(=O)N(C)CC(=O)N(C)[C@H]2C/C=C\CCN(C2=O)[C@@H](Cc2ccc(C(F)(F)F)cc2)C(=O)N(C)CC(=O)N[C@@H](CCc2cc(F)c(C(F)(F)F)c(F)c2)C(=O)N2C[C@@H](C)C[C@H]2C(=O)NC2(CC(C)(C)C2)C(=O)N(C)[C@@H](C2CCCC2)C(=O)N(C)[C@H](C(=O)N(C)CC)CC(=O)N1C [PP2075] |  | 220 pM | A (a compound having 10 or more and less than 20 is denoted as A) | A (a compound having 10 or more and less than 20 is denoted as A) | 
CCO[C@@H]1C[C@H]2C(=O)NC3(CCC3)C(=O)N(C)[C@@H](C3CCCC3)C(=O)N(C)[C@H](C(=O)N(C)C)CC(=O)N(C)[C@@H](CC)C(=O)N[C@@H]([C@@H](C)CC)C(=O)N(C)CC(=O)N(C)[C@H]3CC/C=C(/C)CN(C3=O)[C@@H](Cc3ccc(C(F)(F)F)cc3)C(=O)N(C)CC(=O)N[C@@H](CCc3cc(F)c(C(F)(F)F)c(F)c3)C(=O)N2C1 [PP1334] |  |  |  |  | Kd ([1]; SPR, Single Cycle Kinetics, 1:1 binding model): 11000 pM; HRAS/KRAS (ratio of KD value for HRAS to KD value for KRAS) ([2]; KD ratio class): B (a compound having 3 or more and less than 10 is denoted as B); NRAS/KRAS (ratio of KD value for NRAS to KD value for KRAS) ([3]; KD ratio class): B (a compound having 3 or more and less than 10 is denoted as B)
CCO[C@@H]1C[C@H]2C(=O)NC3(CCC3)C(=O)N(C)[C@@H](C3CCCC3)C(=O)N(C)[C@H](C(=O)N(C)C)CC(=O)N(C)[C@@H](CSC)C(=O)N[C@@H]([C@@H](C)CC)C(=O)N(C)CC(=O)N(C)[C@H]3C/C=C\CCN(C3=O)[C@@H](Cc3ccc(C(F)(F)F)cc3)C(=O)N(C)CC(=O)N[C@@H](CCc3cc(F)c(C(F)(F)F)c(F)c3)C(=O)N2C1 [PP1119, (2S,8S,12R,14S,20S,23S,27R,30S,36S,38Z)-20-cyclopentyl-8-[2-[3,5-difluoro-4-(trifluoromethyl)phenyl]ethyl]-12-ethoxy-N,N,4,19,22,26,32,35-octamethyl-30-[(1S)-1-methylpropyl]-27-(methylsulfanylmethyl)-3,6,9,15,18,21,25,28,31,34,42-undecaoxo-2-[[4-(trifluoromethyl)phenyl]methyl]spiro[1,4,7,10,16,19,22,26,29,32,35-undecazatricyclo[34.5.1.0^10,14]dotetracont-38-ene-17,1′-cyclobutane]-23-carboxamide] |  | 37 pM | A (a compound having 10 or more and less than 20 is denoted as A) | A (a compound having 10 or more and less than 20 is denoted as A) | 
CCO[C@@H]1C[C@H]2C(=O)NC3(CCC3)C(=O)N(C)[C@@H](C3CCCC3)C(=O)N(C)[C@H](C(=O)N(C)C)CC(=O)N(C)[C@@H](Cc3cccc(F)c3)C(=O)N[C@@H]([C@@H](C)CC)C(=O)N(C)CC(=O)N(C)[C@H]3C/C=C\CCN(C3=O)[C@@H](Cc3ccc(C(F)(F)F)cc3)C(=O)N(C)CC(=O)N[C@@H](CCc3cc(F)c(C(F)(F)F)c(F)c3)C(=O)N2C1 [PP1126, (2S,8S,12R,14S,20S,23S,27S,30S,36S,38Z)-20-cyclopentyl-8-[2-[3,5-difluoro-4-(trifluoromethyl)phenyl]ethyl]-12-ethoxy-27-[(3-fluorophenyl)methyl]-N,N,4,19,22,26,32,35-octamethyl-30-[(1S)-1-methylpropyl]-3,6,9,15,18,21,25,28,31,34,42-undecaoxo-2-[[4-(trifluoromethyl)phenyl]methyl]spiro[1,4,7,10,16,19,22,26,29,32,35-undecazatricyclo[34.5.1.0^10,14]dotetracont-38-ene-17,1′-cyclobutane]-23-carboxamide] |  | 89 pM | A (a compound having 10 or more and less than 20 is denoted as A) | A (a compound having 10 or more and less than 20 is denoted as A) | 
CCC[C@H]1C(=O)N[C@@H]([C@@H](C)CC)C(=O)N(C)CC(=O)N(C)[C@H]2C/C=C\CCN(C2=O)[C@@H](Cc2ccc(C)cc2)C(=O)N(C)CC(=O)N[C@@H](CCc2cc(Cl)c3sccc3c2)C(=O)N2C[C@H](OCC)C[C@H]2C(=O)NC2(CC(C)(C)C2)C(=O)N(C)[C@@H](C(CC)CC)C(=O)N(C)[C@H](C(=O)N(C)C)CC(=O)N1C [PP2890] | 420 pM |  |  |  | HRAS/KRAS (ratio of KD value with respect to GDP-bound HRAS wild-type protein to KD value with respect to KRAS) [2]: A (a compound having 10 or more and less than 20 is denoted as A); NRAS/KRAS (ratio of KD value with respect to GDP-bound NRAS wild-type protein to KD value with respect to KRAS) [3]: AA (a compound having 20 or more is denoted as AA)
CCC[C@@H]1C[C@H]2C(=O)NC3(CC(C)(C)C3)C(=O)N(C)[C@@H](C3CCCC3)C(=O)N(C)[C@H](C(=O)N(C)C)CC(=O)N(C)[C@@H](CC)C(=O)N[C@@H]([C@@H](C)CC)C(=O)N(C)CC(=O)N(C)[C@H]3C/C=C\CCN(C3=O)[C@@H](Cc3ccc(C)cc3)C(=O)N(C)CC(=O)N[C@@H](CCc3cc(F)c(C(F)(F)F)c(F)c3)C(=O)N2C1 [PP2208] |  | 200 pM | A (a compound having 10 or more and less than 20 is denoted as A) | A (a compound having 10 or more and less than 20 is denoted as A) | 
